Data reported in PMC12136037, “Type II kinase inhibitors that target Parkinson’s disease–associated LRRK2” (Science Advances, 2025).
Several values for one entry are separate records, joined by “and”; a condition that tells them apart may be missing. Identical values can stand only once. Like-named read-outs stand apart in the source and are kept apart here.

Key:
[1] = target: T1, DDR2 (Homo sapiens, UniProt Q16832); test: nanoBRET off-target validation; assay type: cell-based
T1 construct: host or cells: HEK293T (ATCC CRL-3216)
T1 sequence (Q16832 22-855): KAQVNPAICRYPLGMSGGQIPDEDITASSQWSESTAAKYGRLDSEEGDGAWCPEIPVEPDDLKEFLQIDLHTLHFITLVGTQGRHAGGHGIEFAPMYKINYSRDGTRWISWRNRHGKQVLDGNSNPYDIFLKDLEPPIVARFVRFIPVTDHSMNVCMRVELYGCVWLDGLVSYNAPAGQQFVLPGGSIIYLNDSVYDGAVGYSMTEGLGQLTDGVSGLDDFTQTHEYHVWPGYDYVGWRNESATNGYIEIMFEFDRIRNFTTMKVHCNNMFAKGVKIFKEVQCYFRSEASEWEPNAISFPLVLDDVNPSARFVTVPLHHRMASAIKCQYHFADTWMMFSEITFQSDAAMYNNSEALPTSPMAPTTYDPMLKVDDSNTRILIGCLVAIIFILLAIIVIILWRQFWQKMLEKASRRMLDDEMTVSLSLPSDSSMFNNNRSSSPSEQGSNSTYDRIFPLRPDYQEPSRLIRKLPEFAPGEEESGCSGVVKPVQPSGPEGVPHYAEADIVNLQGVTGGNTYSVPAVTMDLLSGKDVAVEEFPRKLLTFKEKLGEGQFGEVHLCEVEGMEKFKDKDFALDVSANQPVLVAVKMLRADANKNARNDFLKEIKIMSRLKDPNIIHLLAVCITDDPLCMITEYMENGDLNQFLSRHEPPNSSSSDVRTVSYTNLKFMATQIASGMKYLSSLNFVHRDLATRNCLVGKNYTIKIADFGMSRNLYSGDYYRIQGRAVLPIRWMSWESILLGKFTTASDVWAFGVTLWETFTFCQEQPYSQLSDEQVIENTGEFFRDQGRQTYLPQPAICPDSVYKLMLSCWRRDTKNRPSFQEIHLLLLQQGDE
Procedure: (§1) The assay was performed as described previously ([61]). In brief, full-length kinases as listed in table S6 were obtained as plasmids cloned in frame with terminal NanoLuc-fusion (gift from Promega; table S6). […] Serially diluted inhibitor and corresponding tracer as listed in table S6 at the Tracer KD concentration taken from TracerDB (tracerdb.org) ([62]) were pipetted into white 384-well plates (Greiner, 781207) using an ECHO acoustic dispenser (Labcyte). The corresponding protein-transfected cells were added and reseeded at a density of 2 × 10^5 cells/ml after trypsinization and resuspending in Opti-MEM without phenol red (Life Technologies). The system was allowed to equilibrate for 3 hours at 37°C/5% CO2 before bioluminescence resonance energy transfer (BRET) measurements. To measure BRET, NanoBRET NanoGlo Substrate + extracellular NanoLuc Inhibitor (Promega, N2540) was added as per the manufacturer’s protocol, and filtered luminescence was measured on a PHERAstar plate reader (BMG Labtech) equipped with a luminescence filter pair [450-nm BP filter (donor) and 610-nm LP filter (acceptor)]. […] (For step-by-step protocol, see www.eubopen.org/sites/www.eubopen.org/files/attachments/2021/NanoBRET-IC50_v1_0.pdf.)

[2] = target: T2, STK10 (Homo sapiens, UniProt O94804); test: nanoBRET off-target validation; assay type: cell-based
T2 construct: host or cells: HEK293T (ATCC CRL-3216)
Procedure: as §1

T2 sequence (O94804 whole entry): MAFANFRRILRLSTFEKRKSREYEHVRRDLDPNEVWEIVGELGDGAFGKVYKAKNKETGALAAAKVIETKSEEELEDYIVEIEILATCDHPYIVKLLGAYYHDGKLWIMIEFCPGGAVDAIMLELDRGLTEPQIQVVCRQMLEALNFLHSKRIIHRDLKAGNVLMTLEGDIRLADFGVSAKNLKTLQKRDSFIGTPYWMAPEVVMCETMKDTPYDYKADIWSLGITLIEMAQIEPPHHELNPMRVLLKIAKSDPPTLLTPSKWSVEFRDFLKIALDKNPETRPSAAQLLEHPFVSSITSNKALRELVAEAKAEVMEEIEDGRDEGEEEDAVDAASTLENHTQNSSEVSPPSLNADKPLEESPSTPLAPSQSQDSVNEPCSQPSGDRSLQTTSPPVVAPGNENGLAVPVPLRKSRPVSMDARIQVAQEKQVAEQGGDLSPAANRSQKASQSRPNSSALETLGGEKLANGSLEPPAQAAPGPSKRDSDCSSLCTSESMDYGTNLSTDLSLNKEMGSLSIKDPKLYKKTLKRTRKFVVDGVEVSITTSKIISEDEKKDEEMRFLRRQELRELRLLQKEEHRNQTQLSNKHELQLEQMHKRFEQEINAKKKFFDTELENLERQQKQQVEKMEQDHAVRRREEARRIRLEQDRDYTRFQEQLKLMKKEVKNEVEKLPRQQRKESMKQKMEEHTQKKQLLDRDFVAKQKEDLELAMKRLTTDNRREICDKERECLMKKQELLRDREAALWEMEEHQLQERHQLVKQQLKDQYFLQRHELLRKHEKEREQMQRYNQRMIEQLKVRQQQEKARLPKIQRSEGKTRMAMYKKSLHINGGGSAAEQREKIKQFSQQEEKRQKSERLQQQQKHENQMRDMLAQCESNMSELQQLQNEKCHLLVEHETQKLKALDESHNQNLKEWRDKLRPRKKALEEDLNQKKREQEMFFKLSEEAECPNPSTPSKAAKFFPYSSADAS

With `CCSc1nc(NC)c2c(-c3cccc(NC(=O)Nc4cc(C(C)(C)C)nn4-c4ccc(C)cc4)c3)c[nH]c2n1` [Compound 32] the EC50 [1] was over 20 µM, the remaining tracer BRET signal at 0.008 µM ([1]; DDR2, inhibitor 8 nM, two replicates, read-out: nanoBRET response normalized to 0% (no tracer) and 100% (no inhibitor) control) was 102% and 95.3% and the “nanoBRET response normalized to 0% (no tracer) and 100% (no inhibitor) control” value ([1]; DDR2, inhibitor 16 nM, two replicates, listed as RN341, 0.016 µM) was 102.202%. The remaining tracer BRET signal at 0.016 µM ([1]; DDR2, inhibitor 16 nM, two replicates, read-out: nanoBRET response normalized to 0% (no tracer) and 100% (no inhibitor) control) was 105%, the “nanoBRET response normalized to 0% (no tracer) and 100% (no inhibitor) control” value ([1]; DDR2, inhibitor 50 nM, two replicates, listed as RN341, 0.05 µM) was 98.4821% and the remaining tracer BRET signal at 0.05 µM ([1]; DDR2, inhibitor 50 nM, two replicates, read-out: nanoBRET response normalized to 0% (no tracer) and 100% (no inhibitor) control) was 114%. The “nanoBRET response normalized to 0% (no tracer) and 100% (no inhibitor) control” value ([1]; DDR2, inhibitor 250 nM, two replicates, listed as RN341, […]) was 104.362%, the remaining tracer BRET signal at […] ([1]; DDR2, inhibitor 250 nM, two replicates, read-out: nanoBRET response normalized to 0% (no tracer) and 100% (no inhibitor) control) was 123% and the “nanoBRET response normalized to 0% (no tracer) and 100% (no inhibitor) control” value ([1]; DDR2, inhibitor 500 nM, two replicates, listed as RN341, 0.5 µM) was 117.148%. The remaining tracer BRET signal at 0.5 µM ([1]; DDR2, inhibitor 500 nM, two replicates, read-out: nanoBRET response normalized to 0% (no tracer) and 100% (no inhibitor) control) was 129%, the “nanoBRET response normalized to 0% (no tracer) and 100% (no inhibitor) control” value ([1]; DDR2, inhibitor 2500 nM, two replicates, listed as RN341, […]) was 86.9292% and the remaining tracer BRET signal at […] ([1]; DDR2, inhibitor 2500 nM, two replicates, read-out: nanoBRET response normalized to 0% (no tracer) and 100% (no inhibitor) control) was 103%. The “nanoBRET response normalized to 0% (no tracer) and 100% (no inhibitor) control” value ([1]; DDR2, inhibitor 5000 nM, two replicates, listed as RN341, 5 µM) was 105.865%, the remaining tracer BRET signal at 5 µM ([1]; DDR2, inhibitor 5000 nM, two replicates, read-out: nanoBRET response normalized to 0% (no tracer) and 100% (no inhibitor) control) was 89.9% and the “nanoBRET response normalized to 0% (no tracer) and 100% (no inhibitor) control” value ([1]; DDR2, inhibitor 25000 nM, two replicates, listed as RN341, 25 µM) was 54.8632%. The remaining tracer BRET signal at 25 µM ([1]; DDR2, inhibitor 25000 nM, two replicates, read-out: nanoBRET response normalized to 0% (no tracer) and 100% (no inhibitor) control) was 55.4%, the “nanoBRET response normalized to 0% (no tracer) and 100% (no inhibitor) control” value ([2]; STK10, inhibitor 8 nM, two replicates, listed as RN341, 0.008 µM) was 93.5752% and the remaining activity at 0.008 µM ([2]; STK10, inhibitor 8 nM, two replicates, read-out: nanoBRET response normalized to 0% (no tracer) and 100% (no inhibitor) control) was 98.7%. For the same compound, the “nanoBRET response normalized to 0% (no tracer) and 100% (no inhibitor) control” value ([2]; STK10, inhibitor 16 nM, two replicates, listed as RN341, 0.016 µM) was 98.653%, the remaining activity at 0.016 µM ([2]; STK10, inhibitor 16 nM, two replicates, read-out: nanoBRET response normalized to 0% (no tracer) and 100% (no inhibitor) control) was 95% and the “nanoBRET response normalized to 0% (no tracer) and 100% (no inhibitor) control” value ([2]; STK10, inhibitor 50 nM, two replicates, listed as RN341, 0.05 µM) was 90.2983%. The remaining activity at 0.05 µM ([2]; STK10, inhibitor 50 nM, two replicates, read-out: nanoBRET response normalized to 0% (no tracer) and 100% (no inhibitor) control) was 93.4%, the “nanoBRET response normalized to 0% (no tracer) and 100% (no inhibitor) control” value ([2]; STK10, inhibitor 250 nM, two replicates, listed as RN341, […]) was 75.9451% and the remaining activity at […] ([2]; STK10, inhibitor 250 nM, two replicates, read-out: nanoBRET response normalized to 0% (no tracer) and 100% (no inhibitor) control) was 77.3%. The “nanoBRET response normalized to 0% (no tracer) and 100% (no inhibitor) control” value ([2]; STK10, inhibitor 500 nM, two replicates, listed as RN341, 0.5 µM) was 59.4137%, the remaining activity at 0.5 µM ([2]; STK10, inhibitor 500 nM, two replicates, read-out: nanoBRET response normalized to 0% (no tracer) and 100% (no inhibitor) control) was 61.4% and the “nanoBRET response normalized to 0% (no tracer) and 100% (no inhibitor) control” value ([2]; STK10, inhibitor 2500 nM, two replicates, listed as RN341, […]) was 44.5595%. For the same compound, the remaining activity at […] ([2]; STK10, inhibitor 2500 nM, two replicates, read-out: nanoBRET response normalized to 0% (no tracer) and 100% (no inhibitor) control) was 60.9%, the “nanoBRET response normalized to 0% (no tracer) and 100% (no inhibitor) control” value ([2]; STK10, inhibitor 5000 nM, two replicates, listed as RN341, 5 µM) was 40.1132% and the remaining activity at 5 µM ([2]; STK10, inhibitor 5000 nM, two replicates, read-out: nanoBRET response normalized to 0% (no tracer) and 100% (no inhibitor) control) was 58.5%. For the same compound, the “nanoBRET response normalized to 0% (no tracer) and 100% (no inhibitor) control” value ([2]; STK10, inhibitor 25000 nM, two replicates, listed as RN341, 25 µM) was 8.0832%, the remaining activity at 25 µM ([2]; STK10, inhibitor 25000 nM, two replicates, read-out: nanoBRET response normalized to 0% (no tracer) and 100% (no inhibitor) control) was 6.79% and the EC50 ([2]; in cellulo nanoBRET, 293T cells) was < 5 µM and 1.5 µM.
